In patent US9850245B2 (Merck Sharp & Dohme Corp., priority 2014, dated 2017):

Biological target: ROMK (Homo sapiens (Human), UniProt P48048)
Test: Thallium Flux Assay
Assay type: cell-based
Method: A Thallium Flux Assay was performed on the compounds of the Examples. This assay has been described previously; see, e.g., PCT Published Application WO 2013/062900.

ROMK, sequence (P48048 whole entry): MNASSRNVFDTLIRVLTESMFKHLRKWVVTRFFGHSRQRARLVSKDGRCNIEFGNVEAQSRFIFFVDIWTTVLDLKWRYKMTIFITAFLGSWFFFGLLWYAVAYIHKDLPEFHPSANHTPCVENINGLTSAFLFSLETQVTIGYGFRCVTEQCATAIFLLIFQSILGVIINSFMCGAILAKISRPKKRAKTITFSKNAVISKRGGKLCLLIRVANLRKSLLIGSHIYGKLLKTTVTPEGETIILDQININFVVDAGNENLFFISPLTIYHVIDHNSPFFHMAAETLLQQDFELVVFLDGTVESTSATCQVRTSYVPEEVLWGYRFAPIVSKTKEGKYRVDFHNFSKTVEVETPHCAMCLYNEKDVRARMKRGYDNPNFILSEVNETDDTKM

SMILES | IC50
CC1=C(N2CCOC3(CCN(C[C@H](O)c4ccc5c(c4C)COC5=O)CC3)CC2)COC1=O (single isomer, unassigned) [Example 41] | 32.2 nM
Cc1c([C@@H](O)CN2CCC3(CC2)CN(C2=C(Cl)C(=O)OC2)CCO3)ccc2c1COC2=O [Example 23, (R)-5-(2-(4-(4-chloro-5-oxo-2,5-dihydrofuran-3-yl)-1-oxa-4,9-diazaspiro[5.5]undecan-9-yl)-1-hydroxyethyl)-4-methylisobenzofuran-1(3H)-one] | 59.1 nM
Cc1nc(-n2cnnn2)ccc1C(O)CN1CCC2(CC1)CCN(C1=CC(=O)OC1)C(=O)O2 (single isomer, unassigned) [Example 27, 9-(2-hydroxy-2-(2-methyl-6-(1H-tetrazol-1-yl)pyridin-3-yl)ethyl)-3-(5-oxo-2,5-dihydrofuran-3-yl)-1-oxa-3,9-diazaspiro[5.5]undecan-2-one] | 65.5 nM
CC1=C(N2CC3(CCN(C[C@H](O)c4ccc5c(c4C)COC5=O)CC3)OCC2=O)COC1=O [Example 59, (R)-9-(2-hydroxy-2-(4-methyl-1-oxo-1,3-dihydroisobenzofuran-5-yl)ethyl)-4-(4-methyl-5-oxo-2,5-dihydrofuran-3-yl)-1-oxa-4,9-diazaspiro[5.5]undecan-3-one] | 697 nM
Cc1nc(-n2cnnn2)ccc1C(O)CN1CCC2(CC1)CN(C1=CC(=O)OC1)C(=O)O2 (single isomer, unassigned) [Example 17, 8-(2-hydroxy-2-(2-methyl-6-(1H-tetrazol-1-yl)pyridin-3-yl)ethyl)-3-(5-oxo-2,5-dihydrofuran-3-yl)-1-oxa-3,8-diazaspiro[4.5]decan-2-one] | 468 nM
CC1=C(N2CCOC3(CCN(CC(O)c4cnc(-n5cnnn5)cn4)CC3)CC2)COC1=O (single isomer, unassigned) [Example 40, 4-(3-(2-(5-(1H-tetrazol-1-yl)pyrazin-2-yl)-2-hydroxyethyl)-7-oxa-3,10-diazaspiro[5.6]dodecan-10-yl)-3-methylfuran-2(5H)-one] | 118 nM
CC1=C(N2CCOC3(CCN(CC(O)c4ccc(-n5cnnn5)cn4)CC3)C2=O)COC1=O (single isomer, unassigned) [Example 43, 9-(2-(5-(1H-tetrazol-1-yl)pyridin-2-yl)-2-hydroxyethyl)-4-(4-methyl-5-oxo-2,5-dihydrofuran-3-yl)-1-oxa-4,9-diazaspiro[5.5]undecan-5-one] | 37.2 nM
CC1=C(N2C(=O)C3(CCN(C[C@H](O)c4ccc5c(c4C)COC5=O)CC3)OCC2C)COC1=O (single isomer, unassigned) [Example 11] | 267 nM
CC1=C(N2CCOC3(CCN(C[C@@H](F)c4ccc(-n5cnnn5)nc4)CC3)C2=O)COC1=O [Example 56, (S)-9-(2-(6-(1H-tetrazol-1-yl)pyridin-3-yl)-2-fluoroethyl)-4-(4-methyl-5-oxo-2,5-dihydrofuran-3-yl)-1-oxa-4,9-diazaspiro[5.5]undecan-5-one] | 49 nM
CC1=C(N2CCCOC3(CCN(CC(O)c4ccc(-n5cnnn5)nc4C)CC3)C2=O)COC1=O (single isomer, unassigned) [Example 38, 3-(2-hydroxy-2-(2-methyl-6-(1H-tetrazol-1-yl)pyridin-3-yl)ethyl)-11-(4-methyl-5-oxo-2,5-dihydrofuran-3-yl)-7-oxa-3,11-diazaspiro[5.6]dodecan-12-one] | 526 nM
CC1=C(N2CCOC3(CC4CCC(C3)N4CC(O)c3cnc(-n4cnnn4)cn3)C2=O)COC1=O (single isomer, unassigned) [Example 44] | 478 nM
CC1=C(N2CCOC3(CCCN(C[C@@H](O)c4ccc(-n5cnnn5)nc4)CC3)C2=O)COC1=O (stereo partly drawn) [Example 15, 9-((S)-2-(6-(1H-tetrazol-1-yl)pyridin-3-yl)-2-hydroxyethyl)-4-(4-methyl-5-oxo-2,5-dihydrofuran-3-yl)-1-oxa-4,9-diazaspiro[5.6]dodecan-5-one] | 280 nM
CC1=C(N2CCNC3(CCN(CC(O)c4ccc(-n5cnnn5)nc4C)CC3)C2=O)COC1=O (single isomer, unassigned) [Example 2B, 9-(2-hydroxy-2-(2-methyl-6-(1H-tetrazol-1-yl)pyridin-3-yl)ethyl)-4-(4-methyl-5-oxo-2,5-dihydrofuran-3-yl)-1,4,9-triazaspiro[5.5]undecan-5-one] | 56.2 nM
CC1=C(N2CCOC3(CCN(CC(O)c4cnc(-n5cnnn5)cn4)CC3)C2=O)COC1=O (single isomer, unassigned) [Example 18B, 9-(2-(5-(1H-tetrazol-1-yl)pyrazin-2-yl)-2-hydroxyethyl)-4-(4-methyl-5-oxo-2,5-dihydrofuran-3-yl)-1-oxa-4,9-diazaspiro[5.5]undecan-5-one] | 110 nM
CC1=C(N2CCCOC3(CCN(C[C@H](O)c4ccc5c(c4C)COC5=O)CC3)C2=O)COC1=O [Example 37, (R)-3-(2-hydroxy-2-(4-methyl-1-oxo-1,3-dihydroisobenzofuran-5-yl)ethyl)-11-(4-methyl-5-oxo-2,5-dihydrofuran-3-yl)-7-oxa-3,11-diazaspiro[5.6]dodecan-12-one] | 285 nM
O=C1C=C(N2CCOC3(CCN(C[C@H](O)c4ccc(-n5cnnn5)nc4)CC3)C2=O)CO1 [Example 12, (R)-9-(2-(6-(1H-tetrazol-1-yl)pyridin-3-yl)-2-hydroxyethyl)-4-(5-oxo-2,5-dihydrofuran-3-yl)-1-oxa-4,9-diazaspiro[5.5]undecan-5-one] | 161 nM

Further lines, results first:

IC50 | SMILES
126 nM | CC1=C(N2CCOC3(CCN(CC(O)c4ccc(-n5cnnn5)cc4C)CC3)C2)COC1=O (single isomer, unassigned) [Example 31A, 4-(9-(2-hydroxy-2-(2-methyl-4-(1H-tetrazol-1-yl)phenyl)ethyl)-1-oxa-4,9-diazaspiro[5.5]undecan-4-yl)-3-methylfuran-2(5H)-one]
89.9 nM | CC1=C(N2CCOC3(CCN(C[C@@H](O)c4ccc5c(c4C)COC5=O)CC3)C2=O)COC1=O [Example 8B, (S)-9-(2-hydroxy-2-(4-methyl-1-oxo-1,3-dihydroisobenzofuran-5-yl)ethyl)-4-(4-methyl-5-oxo-2,5-dihydrofuran-3-yl)-1-oxa-4,9-diazaspiro[5.5]undecan-5-one]
144 nM | CC1=C(N2CCN(C)C3(CCN(CC(O)c4ccc(-n5cnnn5)nc4C)CC3)C2=O)COC1=O (single isomer, unassigned) [Example 35B, 9-(2-hydroxy-2-(2-methyl-6-(1H-tetrazol-1-yl)pyridin-3-yl)ethyl)-1-methyl-4-(4-methyl-5-oxo-2,5-dihydrofuran-3-yl)-1,4,9-triazaspiro[5.5]undecan-5-one]
142 nM | CC1=C(N2CCNC3(CCN(CC(O)c4cnc(-n5cnnn5)cn4)CC3)C2=O)COC1=O (single isomer, unassigned) [Example 3B, 9-(2-(5-(1H-tetrazol-1-yl)pyrazin-2-yl)-2-hydroxyethyl)-4-(4-methyl-5-oxo-2,5-dihydrofuran-3-yl)-1,4,9-triazaspiro[5.5]undecan-5-one]
74.3 nM | Cc1cc(-n2cnnn2)ccc1C(O)CN1CCC2(CC1)CN(C1=CC(=O)OC1)CCO2 (single isomer, unassigned) [Example 30B, 4-(9-(2-hydroxy-2-(2-methyl-4-(1H-tetrazol-1-yl)phenyl)ethyl)-1-oxa-4,9-diazaspiro[5.5]undecan-4-yl)furan-2(5H)-one]
477 nM | Cc1cc(-n2cnnn2)ccc1C(O)CN1CCC2(CC1)CN(C1=CC(=O)OC1)CCO2 (single isomer, unassigned) [Example 30A, 4-(9-(2-hydroxy-2-(2-methyl-4-(1H-tetrazol-1-yl)phenyl)ethyl)-1-oxa-4,9-diazaspiro[5.5]undecan-4-yl)furan-2(5H)-one]
26 nM | CC1=C(N2CCOC3(CCN(CC(O)c4ccc(-n5cnnn5)cc4C)CC3)C2)COC1=O (single isomer, unassigned) [Example 31B, 4-(9-(2-hydroxy-2-(2-methyl-4-(1H-tetrazol-1-yl)phenyl)ethyl)-1-oxa-4,9-diazaspiro[5.5]undecan-4-yl)-3-methylfuran-2(5H)-one]
230 nM | CC1COC2(CCN(C[C@@H](O)c3ccc(-n4cnnn4)nc3)CC2)C(=O)N1C1=CC(=O)OC1 (single isomer, unassigned) [Example 13A]
36.8 nM | CC1=C(N2CCNC3(CCN(CC(O)c4ccc(-n5cnnn5)cc4)CC3)C2=O)COC1=O (single isomer, unassigned) [Example 5B, 9-(2-(4-(1H-tetrazol-1-yl)phenyl)-2-hydroxyethyl)-4-(4-methyl-5-oxo-2,5-dihydrofuran-3-yl)-1,4,9-triazaspiro[5.5]undecan-5-one]
307 nM | CC1=C(N2C(=O)C3(CCN(C[C@H](O)c4ccc(-n5cnnn5)nc4)CC3)OCC2C)COC1=O (single isomer, unassigned) [Example 10B]
630 nM | O=C1OCC(N2CCOC3(CCN(C[C@@H](O)c4ccc(-n5cnnn5)nc4)CC3)C2)=C1C1CC1 [Example 28B, (S)-4-(9-(2-(6-(1H-tetrazol-1-yl)pyridin-3-yl)-2-hydroxyethyl)-1-oxa-4,9-diazaspiro[5.5]undecan-4-yl)-3-cyclopropylfuran-2(5H)-one]
171 nM | O=C1C=C(N2CCC3(CCN(C[C@H](O)c4ccc(-n5cnnn5)nc4)CC3)OC2=O)CO1 [Example 26A, (R)-9-(2-(6-(1H-tetrazol-1-yl)pyridin-3-yl)-2-hydroxyethyl)-3-(5-oxo-2,5-dihydrofuran-3-yl)-1-oxa-3,9-diazaspiro[5.5]undecan-2-one]
30.5 nM | COc1cc(-n2cnnn2)ccc1C(O)CN1CCC2(CC1)CN(C1=C(C)C(=O)OC1)CCO2 (single isomer, unassigned) [Example 33A, 4-(9-(2-hydroxy-2-(2-methoxy-4-(1H-tetrazol-1-yl)phenyl)ethyl)-1-oxa-4,9-diazaspiro[5.5]undecan-4-yl)-3-methylfuran-2(5H)-one]
37.4 nM | CC1=C(N2CCOC3(CCN(CC(O)c4ccc(-n5cnnn5)cc4F)CC3)C2)COC1=O (single isomer, unassigned) [Example 32A, 4-(9-(2-(2-fluoro-4-(1H-tetrazol-1-yl)phenyl)-2-hydroxyethyl)-1-oxa-4,9-diazaspiro[5.5]undecan-4-yl)-3-methylfuran-2(5H)-one]
